The experiment has as its system Smad binding element (SBE) luciferase reporter activity in TGFβ1 stimulated NIH-3T3 cells. Briefly: ALK-5 gene reporter assay: Smad binding element (SBE) luciferase reporter in TGFβ1 stimulated NIH-3T3 cells. The settings on record: Mus musculus, NIH3T3.

One may read the IC50 as the concentration that inhibits the measured activity by half. Low values mean greater potency in that assay, high ones weaker potency in that assay. Turning to `CCc1cnn(-c2cccc(C)n2)c1-c1cc2cnccc2s1` [Example 4, 2-[4-ethyl-1-(6-methylpyridin-2-yl)-1H-pyrazol-5-yl]thieno[3,2-c]pyridine], the IC50 worked out at 21.5 nM.

These data come from patent US9090625B2, “Therapeutic pyrazolyl thienopyridines” (Thesan Pharmaceuticals, Inc., priority 2006, dated 2015).
